# From paper PMC10569036
# Key:
# [1] = shake flask on a mixture of 185; loss from the water phase only; LC-Orbitrap peak areas; details: room
# [2] = shake flask on a mixture of 185; loss from the water phase only; LC-QTOF peak areas; details: room
SMILES,"log partition 1-octanol / HPLC water, unbuffered, traces of methanol / DMSO [1]","log partition butyl acetate / HPLC water, unbuffered, traces of methanol / DMSO [1]","log partition chloroform / HPLC water, unbuffered, traces of methanol / DMSO [1]","log partition cyclohexane / HPLC water, unbuffered, traces of methanol / DMSO [1]","log partition dichloromethane / HPLC water, unbuffered, traces of methanol / DMSO [1]","log partition n-hexane / HPLC water, unbuffered, traces of methanol / DMSO [1]","log partition n-octane / HPLC water, unbuffered, traces of methanol / DMSO [1]","log partition n-undecane / HPLC water, unbuffered, traces of methanol / DMSO [1]","log partition oleylalcohol / HPLC water, unbuffered, traces of methanol / DMSO [1]","log partition toluene / HPLC water, unbuffered, traces of methanol / DMSO [1]","log partition 1-octanol / HPLC water, unbuffered, traces of methanol / DMSO [2]","log partition butyl acetate / HPLC water, unbuffered, traces of methanol / DMSO [2]","log partition chloroform / HPLC water, unbuffered, traces of methanol / DMSO [2]","log partition cyclohexane / HPLC water, unbuffered, traces of methanol / DMSO [2]","log partition dichloromethane / HPLC water, unbuffered, traces of methanol / DMSO [2]","log partition n-hexane / HPLC water, unbuffered, traces of methanol / DMSO [2]","log partition n-octane / HPLC water, unbuffered, traces of methanol / DMSO [2]","log partition n-undecane / HPLC water, unbuffered, traces of methanol / DMSO [2]","log partition oleylalcohol / HPLC water, unbuffered, traces of methanol / DMSO [2]","log partition toluene / HPLC water, unbuffered, traces of methanol / DMSO [2]"
CCC(C)(CC)c1cc(NC(=O)c2c(OC)cccc2OC)on1,2.911 log10,2.863 log10,1.794 log10,1.372 log10,2.835 log10,0.9138 log10,0.8981 log10,0.6241 log10,2.582 log10,2.848 log10,1.786 log10,2.159 log10,2.432 log10,1.696 log10,1.861 log10,0.9529 log10,1.176 log10,1.012 log10,2.115 log10,2.04 log10
CN/C(=N/[N+](=O)[O-])NCC1CCOC1 (stereo not shown),0.006708 log10,0.08365 log10,0.01252 log10,-0.8947 log10,0.2723 log10,-0.6643 log10,-1.349 log10,-1.639 log10,-0.3931 log10,-0.3042 log10,-0.7277 log10,-1.391 log10,-0.45 log10,-1.158 log10,-0.07832 log10,-1.181 log10,-1.698 log10,-1.902 log10,-1.007 log10,-1.236 log10
CCc1nn(C)c(C(=O)NCc2ccc(C(C)(C)C)cc2)c1Cl,1.459 log10,1.634 log10,0.2173 log10,0.942 log10,3.08 log10,0.5625 log10,1.395 log10,0.9075 log10,1.51 log10,1.132 log10,0.9057 log10,1.589 log10,1.982 log10,2.337 log10,2.036 log10,2.449 log10,2.089 log10,1.893 log10,0.96 log10,1.518 log10
CCCCOC(=O)C(C)Oc1ccc(Oc2ccc(C(F)(F)F)cn2)cc1 (stereo not shown),1.133 log10,4.432 log10,2.334 log10,-0.5049 log10,3.927 log10,-1.029 log10,-0.5477 log10,-0.5963 log10,1.914 log10,-0.7173 log10,1.531 log10,1.572 log10,2.874 log10,2.387 log10,2.183 log10,2.824 log10,2.349 log10,2.336 log10,1.771 log10,2.12 log10
O=C(c1ccccc1)c1ccc(O)cc1O,1.665 log10,2.111 log10,0.8448 log10,-0.5373 log10,1.668 log10,-1.173 log10,-0.7644 log10,-1.267 log10,1.444 log10,0.1696 log10,2.033 log10,2.368 log10,1.568 log10,-0.7702 log10,1.235 log10,-0.7955 log10,-0.8875 log10,-0.7905 log10,1.696 log10,1.076 log10
CCNC(=O)C1CC(C)CCC1C(C)C (stereo not shown),0.07926 log10,-0.1005 log10,0.05708 log10,,-0.08543 log10,,,,-0.02549 log10,-0.1964 log10,1.736 log10,1.72 log10,1.704 log10,,1.778 log10,,,,1.811 log10,1.717 log10
